From publication PMC3670040, “Structure of Lipid Kinase p110β/p85β Elucidates an Unusual SH2-Domain-Mediated Inhibitory Mechanism” (Molecular Cell, 2011)
Square brackets hold non-standard residues; d marks the D form. Ends that are not written are not given here. pY = N[C@@H](Cc1ccc(OP(=O)(O)O)cc1)C(=O)O

System: human p110β
Assay: Transcreener ADP formation, human p110β with icSH2 of human p85α, p85β, p55γ
Type: biochemical
Conditions: icSH2 from p85α, p85β or p55γ; 10 μM pY2; Figure 4A
Method: Figure 4 cSH2 Is Important for p110β Inhibition In Vitro and in Cells (A) Kinase activity of human p110β and icSH2 wild-type constructs from three human regulatory subunits (p85α, p85β, and p55γ) in the absence and presence of 10 μM PDGFR pY2 (y axis as in Figure 1B). EC50s for wild-type and icSH2 tyrosine mutants, in the absence and presence of 10 μM PDGF pY2, are shown. (B) Western blots of HEK cells transiently expressing wild-type and mutant human p110β/p85α. The membrane was probed with antibodies against PKB, pPKB (pSer473), myc (p110β), FLAG (p85α), and actin. Bar graphs show mean ± SEM (n = 3) of PKB phosphorylation level normalized to wild-type p110β/p85α (WT). The position of the three mutations is mapped on the p110β/p85β structure. […]
The lipid kinase activity was determined using the Transcreener ADP2 FP Assay (BellBrook Labs, Madison, WI) according to manufacturer‟s specifications. This non-radioactive assay measures activity by quantitating the amount of ADP formed. The ADP formed by PI3K competes with fluorescent ADP tracer for binding to an anti-ADP antibody, thereby decreasing fluorescence polarization. […]

Substance: ESDGG[pY]MDMSKDESID[pY]VPMLDMKGDIKYADIE [pY2, bis-phosphopeptide (PDGFR 735–767, with pY740 and pY751)]
- effect of pY2 on activity of human p110β bound to icSH2: significantly stimulated the activity
